Results on 10 compounds are retold here after ChEMBL document CHEMBL4011606, “Synthesis and antiplasmodial activity of novel indoleamide derivatives bearing sulfonamide and triazole pharmacophores” (Eur J Med Chem, 2017).

In data set [1] the test system is Plasmodium falciparum. Kind of data set: Antiplasmodial activity against chloroquine-sensitive Plasmodium falciparum 3D7 infected in human erythrocytes measured after 72 hrs by SYBR green 1 dye based fluorescence assay. The format is functional, cell-based. The note with it: 3D7, 72 h.
Data set [2] is described as follows: Selectivity index, ratio of CC50 for African green monkey Vero cells to IC50 for chloroquine-resistant Plasmodium falciparum K1. The note with it: read-out: Ratio CC50/IC50. The format is toxicity.
Data set [3] is described as follows: Cytotoxicity against African green monkey Vero cells measured after 3 days by resazurin dye based fluorescence assay. It counts as cell-based. The following applies: chlorocebus sabaeus.
The nature of data set [4]: Selectivity index, ratio of CC50 for African green monkey Vero cells to IC50 for chloroquine-sensitive Plasmodium falciparum 3D7. It counts as toxicity. The note with it: read-out: Ratio CC50/IC50.
Data set [5] concerns Plasmodium falciparum. As to the kind of experiment: Antiplasmodial activity against chloroquine-resistant Plasmodium falciparum K1 infected in human erythrocytes measured after 72 hrs by SYBR green 1 dye based fluorescence assay. It counts as functional, cell-based. The note with it: K1, 72 h.
Data set [6] is described as follows: Resistance index, ratio of IC50 for chloroquine-resistant Plasmodium falciparum K1 to IC50 for chloroquine-sensitive Plasmodium falciparum 3D7. It counts as functional.

For the compound `O=C(CCCc1cn(Cc2ccc(Br)cc2)c2ccccc12)NC12CC3CC(CC(C3)C1)C2`, the IC50 in the data set on Plasmodium falciparum [1] came to 3.15 µM; in the data set with Plasmodium falciparum [5], 3.35 µM. For the same compound, the selectivity ratio was greater than 74 in data set [2] and greater than 79 in data set [4]. The CC50 at 72 h in data set [3] was greater than 250 µM. The Ratio IC50 in data set [6] was 1.06.
For `CC(C)(C)c1ccc(S(=O)(=O)n2cc(CCCC(=O)NC34CC5CC(CC(C5)C3)C4)c3ccccc32)cc1`, the IC50 stood at 1.87 µM in the data set with Plasmodium falciparum [1] and 1.69 µM in the data set with Plasmodium falciparum [5]. Further, the results for the selectivity ratio in data set [2] and in data set [4] were greater than 147 and greater than 133, respectively. This compound also displayed a CC50 at 72 h in data set [3] greater than 250 µM. Further, the Ratio IC50 in data set [6] was 0.9.
`CCCCCCCn1cc(CCCC(=O)NC23CC4CC(CC(C4)C2)C3)c2ccccc21`: the 50% inhibitory concentration (IC50) in the data set on Plasmodium falciparum [1] amounted to 1.91 µM; in the data set on Plasmodium falciparum [5], 3.53 µM. Moreover, the figures for the selectivity ratio in data set [2] and in data set [4] were greater than 70 and greater than 130, respectively. In data set [3], this compound showed a CC50 at 72 h greater than 250 µM. Moreover, in data set [6], the Ratio IC50 is 1.84.
Turning to `O=C(CCCc1cn(Cc2ccc(F)cc2)c2ccccc12)NC12CC3CC(CC(C3)C1)C2`, the IC50 in the data set on Plasmodium falciparum [1] worked out at 2.2 µM; in the data set with Plasmodium falciparum [5], 3.5 µM. Moreover, the selectivity ratio is greater than 71 in data set [2] and greater than 113 in data set [4]. Further, in data set [3], the cytotoxic concentration (CC50) at 72 h was greater than 250 µM. Also, the Ratio IC50 in data set [6] turned out to be 1.59.
As to `O=C(CCCc1cn(S(=O)(=O)c2cccc3ccccc23)c2ccccc12)NC1CCCCCC1`, the 50% inhibitory concentration (IC50) in the data set with Plasmodium falciparum [1] was found to be 4.67 µM; in the data set on Plasmodium falciparum [5], 3.68 µM. Moreover, the selectivity ratio was greater than 67 in data set [2] and greater than 53 in data set [4]. The same compound came in with a cytotoxic concentration (CC50) at 72 h in data set [3] greater than 250 µM. For the same compound, the Ratio IC50 in data set [6] was 0.78.
`Cc1ccc(S(=O)(=O)n2cc(CCCC(=O)NC3CCCCCC3)c3ccccc32)cc1`: the figures for the IC50 in the data set on Plasmodium falciparum [1] and in the data set with Plasmodium falciparum [5] were 3.38 µM and 3.27 µM, respectively. Further, the results for the selectivity ratio in data set [2] and in data set [4] were greater than 76 and greater than 73, respectively. In data set [3], this compound displayed a CC50 at 72 h greater than 250 µM. Moreover, in data set [6], the Ratio IC50 is 0.96.
With `O=C(CCCc1cn(S(=O)(=O)c2ccccc2)c2ccccc12)NC12CC3CC(CC(C3)C1)C2`, the IC50 is 5.04 µM with Plasmodium falciparum [1] and 2.46 µM in the data set on Plasmodium falciparum [5]. The selectivity ratio was greater than 101 in data set [2] and greater than 49 in data set [4]. Moreover, the 50% cytotoxic concentration (CC50) at 72 h in data set [3] is greater than 250 µM. The Ratio IC50 in data set [6] came out at 0.48.
Consider `O=C(CCCc1cn(Cc2cn(Cc3ccccc3)nn2)c2ccccc12)NC12CC3CC(CC(C3)C1)C2`, for which the results for the IC50 in the data set on Plasmodium falciparum [1] and in the data set on Plasmodium falciparum [5] were 2.16 µM and greater than 10 µM, respectively. The selectivity ratio in data set [2] was greater than 25; in data set [4] it was greater than 115. Moreover, the half-maximal cytotoxic concentration (CC50) at 72 h in data set [3] is greater than 250 µM. Besides, the Ratio IC50 in data set [6] was greater than 4.62.
For the compound `CC(C)(C)c1ccc(S(=O)(=O)n2cc(CCCC(=O)NC3C4CC5CC(C4)CC3C5)c3ccccc32)cc1` (stereo not given), the IC50 is 3.35 µM with Plasmodium falciparum [1] and 4.26 µM with Plasmodium falciparum [5]. The selectivity ratio in data set [2] was greater than 58; in data set [4], greater than 74. Besides, the half-maximal cytotoxic concentration (CC50) at 72 h in data set [3] was greater than 250 µM. Besides, the Ratio IC50 in data set [6] was found to be 1.27.
Turning to `Cc1cc(S(=O)(=O)n2cc(CCCC(=O)NC3CCCCCC3)c3ccccc32)c(C)cc1Cl`, the IC50 in the data set with Plasmodium falciparum [1] is 2.17 µM; with Plasmodium falciparum [5] it was 2.19 µM. The selectivity ratio in data set [2] was greater than 114; in data set [4], greater than 115. In data set [3], this compound had a half-maximal cytotoxic concentration (CC50) at 72 h greater than 250 µM. Also, the Ratio IC50 in data set [6] came out at 1.
